The test system of data set [1] is CHMC cells. The experiment in a line: Phosphorylation of proteins downstream of Syk / LYN kinase in the FcεRI cascade, activated CHMC cells. The data set is classed as cell-based, human. The conditions noted are these: varying concentrations, FIG. 10.
Data set [2] concerns cultured human mast cells (CHMC). The data set can be described thus: CHMC low cell density ionomycin activation: tryptase assay. The data set is classed as cell-based.
Data set [3] shares this test system. The data set can be described thus: CHMC high cell density IgE activation: LTC4. The following applies: anti-IgE activation. It is filed as cell-based. The gist of the method: (§1)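 IgE-sensitized CHMC at 1-2×10^6 cells/ml were pretreated with compound for 1 h at 37 °C (0.5% DMSO final), then anti-IgE-stimulated for 1 h and supernatant collected. Hexosaminidase was read with a fluorogenic substrate. Pellets were re-incubated 7 h with compound before supernatant ELISAs.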

Data set [4] has the same test system. The experiment in a line: CHMC high cell density IgE activation: TNFalpha. The conditions noted are these: anti-IgE activation; read-out: CHMC high density TNF-alpha. It is filed as cell-based. The gist of the method: as §1
The test system is the same in data set [5]. The experiment in a line: CHMC high cell density IgE activation: IL-13. The conditions noted are these: anti-IgE activation. The data set is classed as cell-based. The method, then: Inhibition of degranulation was measured at both low and high cell density by quantifying the release of the granule specific factors tryptase, histamine and hexosaminidase. Inhibition of release and/or synthesis of lipid mediators was assessed by measuring the release of leukotriene LTC4 and inhibition of release and/or synthesis of cytokines was monitored by quantifying TNF-α, IL-6 and IL-13. Tryptase and hexosaminidase were quantified using fluorogenic substrates as described in their respective examples. […] The protocols of the various assays are provided below.
After sensitizing, cells are counted, pelleted (1000 rpm, 5-10 minutes), and resuspended at 1-2×10^6 cells/ml in MT buffer. Add 100 ul of cell suspension to each well and 100 ul of compound dilutions. The final vehicle concentration is 0.5% DMSO. Incubate at 37° C. (5% CO2) for 1 hour. After 1 hour of compound treatment, stimulate cells with 6× anti-IgE. Mix wells with the cells and allow plates to incubate at 37° C. (5% CO2) for one hour. After 1 hour incubation, pellet cells (10 minutes, 1000 RPM) and collect 200 ul per well of the supernatant, being careful not to disturb pellet. Place the supernatant plate on ice. During the 7-hour step (see next) perform tryptase assay on supernatant that had been diluted 1:500. Resuspend cell pellet in 240 ul of CM media containing 0.5% DMSO and corresponding concentration of compound. Incubate CHMC cells for 7 hours at 37° C. (5% CO2). After incubation, pellet cells (1000 RPM, 10 minutes) and collect 225 ul per well and place in −80° C. until ready to perform ELISAS. ELISAS are performed on appropriately diluted samples (determined empirically for each donor cell population so that the sample measurement falls within the standard curve) following the supplier's instructions.

Data set [6] has as its system bone marrow derived mast cells (BMMC). The data set can be described thus: BMMC high cell density IgE activation: TNFalpha. It is filed as cell-based, mouse. The conditions noted are these: anti-IgE, second part of TABLE 1, read-out: BMMC anti-IgE TNF-alpha IC50. Summed up: (§2)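 IgE-sensitized BMMC (1-3×10^6 cells/ml, MT buffer) were pretreated with compound for 1 h at 37 °C in 0.5% DMSO, then stimulated with DNP-BSA (6× stimulus, 60 ng/ml) for 1 h. Supernatant was taken, and cells were re-incubated 4–5 h in WEI-conditioned medium with compound. Mediators were quantified by ELISA.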

Data set [7] deals with basophil cells. The data set can be described thus: Basophil IgE activation: histamine release assay. It is filed as cell-based, human. The following applies: Basophils, anti-IgE. The procedure:
The basophil activation assay was carried out using whole human peripheral blood from donors allergic to dust mites with the majority of the red blood cells removed by dextran sedimentation. Human peripheral blood was mixed 1:1 with 3% dextran T500 and RBCs were allowed to settle for 20-25 min. The upper fraction was diluted with 3 volumes of D-PBS and cells were spun down for 10 min at 1500 rpm, RT. Supernatant was aspirated and cells were washed in an equal volume MT-buffer. Finally, cells were resuspended in MT-buffer containing 0.5% DMSO in the original blood volume. 80 uL cells were mixed with 20 uL compound in the presence of 0.5% DMSO, in triplicate, in a V-bottom 96-well tissue culture plate. A dose range of 8 compound concentrations was tested resulting in a 10-point dose response curve including maximum (stimulated) and minimum (unstimulated) response. […] The cells were stimulated for 30 minutes at 37° C., 5% CO2. The plate was spun for 10 min at 1500 rpm at room temperature and 80 uL the supernatant was harvested for histamine content analysis using the histamine ELISA kit supplied by Immunotech. The ELISA was performed according to supplier's instructions.

Data set [8] relates to B-cell line BJAB. The data set can be described thus: BJAB toxicity, Cell Titer Glo assay. The conditions noted are these: 18 hours incubation. It is filed as cell-based. The method, then: Seed 50 μl cells (1×10^6/ml) into each well containing 50 μl compound. The final vehicle concentration is 0.5% DMSO, 1.5% MeOH. Shake plates for 1 minute to mix cells and compound. Incubate plates at 37° C. (5% CO2) for 18 hours. Next day, harvest 50 μl cells from each well, add to 50 μl Cell Titer Glo reagent ([…]). Shake plates for 1 minute. Read on luminometer.
A general note: ATP-based viability assays read luminescence as a measure of living cells.

The test system of data set [9] is Salmonella-Escherichia coli tester strains.
In data set [10] the target is Syk kinase (Homo sapiens (Human), UniProt P43405). The experiment in a line: Isolated Syk kinase: phosphorylation of a peptide substrate or endogenous substrate (LAT).
Data set [11] deals with cultured human mast cells (CHMC). The data set can be described thus: CHMC high cell density IgE activation: tryptase. The data set is classed as cell-based. The following applies: anti-IgE activation. The gist of the method: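 IgE-sensitized CHMC at 1-2×10^6 cells/ml in MT buffer were pretreated with compound for 1 h at 37 °C (0.5% DMSO final), then stimulated with anti-IgE for 1 h. Tryptase was measured in 1:500-diluted supernatant. Pellets were re-incubated for 7 h with compound in CM media, and supernatants were assayed by ELISA.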

Data set [12] deals with bone marrow derived mast cells (BMMC). The experiment in a line: BMMC high cell density IgE activation: hexosaminidase. It is filed as cell-based, mouse. The following applies: anti-IgE, second part of TABLE 1, read-out: BMMC anti-IgE hexos. IC50. The gist of the method:
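IgE-sensitized BMMC at 1-3×10^6 cells/ml preincubated 1 hour at 37° C. with compound (0.5% DMSO), then stimulated 1 hour with DNP-BSA (6× stimulus 60 ng/ml). Supernatant hexosaminidase measured with 2 mM 4-methylumbelliferyl-N-acetyl-glucosaminide substrate at 37° C., read at 5–30 minutes.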

Data set [13] shares this test system. The data set can be described thus: BMMC high cell density IgE activation: IL-6. The data set is classed as cell-based, mouse. The conditions noted are these: anti-IgE, second part of TABLE 1. The gist of the method:
as §2

The mark [14] stands for this setting: increasing concentrations, FIG. 8.

Regarding `CNC(=O)COc1cccc(Nc2ncc(F)c(Nc3ccc4c(c3)NCCO4)n2)c1` [R921219, N4-(1,4-Benzoxazin-6-yl)-5-fluoro-N2-[3-(N-methylamino)carbonylmethyleneoxyphenyl]-2,4-pyrimidinediamine], the “phosphorylation of proteins downstream of Syk kinase” value in data set [1] is “inhibit”. Further, the IC50 in [2] was more than 10000 nM; in [3], 34 nM; in data set [4], 190 nM; in data set [5], 175 nM; in [6], 39 nM; in data set [7] it was 25 nM. Also, the IC50 in [8] was more than 10000 nM. Besides, the Ames test result in data set [9] was “test positive in tester strain TA1537, with and without metabolic activation”. Also, the “mode of inhibition of Syk kinase” value in data set [10] (FIG. 9) is on record as “ATP competitive”. The “Syk kinase phosphorylation of a peptide substrate” value in data set [10] (setting [14]) was “dose responsive inhibition”. The “Syk kinase phosphorylation of an endogenous substrate (LAT)” value in data set [10] (setting [14]) is reported as “dose responsive inhibition”.

Take `CNC(=O)COc1cccc(Nc2ncc(F)c(Nc3cccc(O)c3)n2)c1` [R926508, 5-Fluoro-N4-(3-hydroxyphenyl)-N2-[3-(N-methylamino)carbonylmethyleneoxyphenyl]-2,4-pyrimidinediamine]: the IC50 is more than 10000 nM in data set [2]; 434 nM in [11]; 505 nM in data set [3]; 763 nM in [5]; 86 nM in data set [12]; 54 nM in [6]. In addition, the IC50 in data set [13] was 26 nM; in [7], 65 nM; in data set [8], more than 10000 nM.
